Data taken from US20230027066A1 (Urovant Sciences GmbH, priority 2019, published 2023).

Tested on: men and women with overactive bladder
Assay: Phase 3 study of vibegron 75 mg vs placebo and tolterodine ER 4 mg, 12 weeks, efficacy (voiding and urine volume diary)
Assay type: in vivo, human
Conditions: for Daily Urgency Episodes: Vibegron - Placebo LS Means Difference: 75 mg; for Daily Urgency Episodes: Reduction from Baseline at Week 12, LS Mean: vibegron 75 mg, tolterodine ER 4 mg; for Patients with 100% Reduction in UUI from Baseline to Week 12, Unadjusted n (%) / Patients with at Least 75% Reduction in UUI from Baseline to Week 12, Unadjusted n (%) / Patients with 100% Reduction in UUI from Baseline to Week 12, Adjusted n (%) / Patients with at Least 75% Reduction in UUI from Baseline to Week 12, Adjusted n (%): FAS-I; for Patients with 100% Reduction in UUI from Baseline to Week 12, Adjusted n (%) / Patients with at Least 75% Reduction in UUI from Baseline to Week 12, Adjusted n (%): MI for missing values; for 75% UUI responders, Active-Placebo CMH Difference / 100% UUI responders, Active-Placebo CMH Difference: stratified by sex; for Urgency, Change from Baseline LS Mean / Urgency, LS Mean Difference active - Placebo: baseline to Week 12
Experimental: Enrollment of patients included individuals with OAB Wet (those with UUI, the involuntary loss of urine accompanied by urgency) and OAB Dry (those without UUI). A total of 1,518 patients were randomized across 215 study sites into one of three groups for a 12-week treatment period.
The study consisted of a Screening Period (1 to 5 weeks), a single-blind Run-in Period (2 weeks), a randomized double-blind Treatment Period (12 weeks), and a Follow-up Period (4 weeks).
Tolterodine ER 4 mg was the active control. […] Between the Baseline and Week 12 Visits, patients had study assessments at Week 4 and Week 8.
The Patient Voiding Diary was used by participants (via the eDiary or paper Diary) to record the frequency of daily OAB symptoms including all micturitions, urgency, incontinence, and main reason for incontinence by selecting the respective box for each symptom occurring during the course of a given day and night.
Urine volume data were collected separately by patients using the Urine Volume component of the eDiary, or the paper Urine Volume Chart. The Urine Volume Chart is a tool used in clinical practice and clinical investigation to assess voiding functions over a 24-hour period and is regarded as a useful instrument in the investigation of patients with voiding symptoms. Urine volume may be collected during any one (1) of the 7 Diary Days prior to the visit, and it should be recorded for ˜24 hours starting from the time the patient gets up for the day and continues until the time the patient gets up for the day on the next day.
For the purpose of this study, the number of micturitions was defined as the number of times a patient has voided in the toilet as indicated on the Patient Voiding Diary. Average daily micturitions were calculated using the daily entries in the Patient Voiding Diary, which was completed over the 7 days prior to each study visit. Average daily number of micturitions were calculated as the total number of micturitions that occurred on a Complete Diary Day divided by the number of Complete Diary Days in the Patient Voiding Diary. A complete diary day required confirmation by the patient in the Patient Voiding Diary that all voids and leakages had been recorded for the diary day. Baseline was defined as the average number of micturitions occurring during the last evaluable diary prior to the Baseline Visit.
The number of UUI episodes was defined as the number of times a patient had checked “urge” as the reason for accidental urine leakage. Average daily UUI episodes at each study visit were calculated in the same manner as described above for the micturition endpoint. The UUI endpoint were analyzed using only OAB Wet patients.
For the analysis of the co-primary endpoints (change from baseline in average number of daily micturitions at Week 12 and change from baseline in average number of daily urge urinary incontinence episodes at Week 12, and placebo adjustment of each), a mixed model for repeated measure (MMRM) with restricted maximum likelihood estimation was used. This model corrects for dropout and accounts for the fact that measurements taken on the same patient over time tend to be correlated by using all available information on patients within the same covariate set to derive an estimate of the treatment effect for a dropout-free population. The analysis model for each efficacy endpoint includes terms for treatment, visit, OAB Type (Wet vs Dry), Sex (Female vs Male), Region (US vs Rest of World), baseline score, and interaction of visit by treatment.
Primary inferences were drawn from treatment differences for the changes from baseline derived from the MMRM models at Week 12. As part of secondary objectives, the treatment differences for each post baseline visit were also derived using the same MMRM model. […]

[1] = 50% Total Incontinence Responders, Week 2
[2] = 50% Total Incontinence Responders, Week 4
[3] = 50% Total Incontinence Responders, Week 8
[4] = 50% Total Incontinence Responders, Week 12
[5] = Dry population, baseline to Week 2

O=C(Nc1ccc(C[C@@H]2CC[C@H]([C@H](O)c3ccccc3)N2)cc1)[C@@H]1CCc2nccc(=O)n21 [Vibegron, (6S)-N-[4-[[(2S,5R)−5-[(R)-hydroxy(phenyl)methyl]pyrrolidin−2-yl]methyl]phenyl]−4-oxo−7,8-dihydro−6H-pyrrolo[1,2-a]pyrimidine−6-carboxamide]
Average Volume Voided per Micturition, Mean (SD) [1]: 173.8 (76.89)
Average daily number of urgency episodes, Mean (SD) [1]: 5.62 (3.792)
Change from Baseline in Average Daily Number of Urgency Episodes, LS Mean (SE) [1]: −2.1 (0.15)
Change from Baseline in Average Volume Voided per Micturition, LS Mean [1]: 16.1 (3.79)
Change from baseline in Percent Dry Diary Days, LS Mean [1]: 29.0 (2.11) Percent
Percent Dry Diary Days, Mean (SD) [1]: 34.64 (36.322) Percent
Average Volume Voided per Micturition, Mean (SD) [2]: 176.5 (81.31)
Average daily number of urgency episodes, Mean (SD) [2]: 5.01 (3.889)
Change from Baseline in Average Daily Number of Urgency Episodes, LS Mean (SE) [2]: −2.6 (0.16)
Change from Baseline in Average Volume Voided per Micturition, LS Mean [2]: 18.0 (3.99)
Change from baseline in Percent Dry Diary Days, LS Mean [2]: 37.8 (2.41) Percent
Percent Dry Diary Days, Mean (SD) [2]: 43.31 (41.468) Percent
Average Volume Voided per Micturition, Mean (SD) [3]: 182.0 (84.53)
Average daily number of urgency episodes, Mean (SD) [3]: 4.25 (3.833)
Change from Baseline in Average Daily Number of Urgency Episodes, LS Mean (SE) [3]: −3.4 (0.19)
Change from Baseline in Average Volume Voided per Micturition, LS Mean [3]: 24.2 (4.12)
Change from baseline in Percent Dry Diary Days, LS Mean [3]: 47.4 (2.45) Percent
Percent Dry Diary Days, Mean (SD) [3]: 53.01 (39.898) Percent
Average Volume Voided per Micturition, Mean (SD) [4]: (186.2 (84.24)
Average daily number of urgency episodes, Mean (SD) [4]: 3.67 (3.481)
Change from Baseline in Average Daily Number of Urgency Episodes, LS Mean (SE) [4]: −4.0 (0.20)
Change from Baseline in Average Volume Voided per Micturition, LS Mean [4]: 27.6 (4.24)
Change from baseline in Percent Dry Diary Days, LS Mean [4]: 55.5 (2.37) Percent
Percent Dry Diary Days, Mean (SD) [4]: 61.0 (37.857) Percent
Average Volume Voided per Micturition, Mean (SD) (75% UUI Responders, Week 2): 174.3 (77.29)
Average daily number of urgency episodes, Mean (SD) (75% UUI Responders, Week 2): 5.40 (3.762)
Change from Baseline in Average Volume Voided per Micturition, LS Mean (75% UUI Responders, Week 2): 17.7 (4.28)
Change from baseline in average daily number of urgency episodes, LS Mean (75% UUI Responders, Week 2): −2.2 (0.17)
Average Volume Voided per Micturition, Mean (SD) (75% UUI Responders, Week 4): 178.1 (82.51)
Average daily number of urgency episodes, Mean (SD) (75% UUI Responders, Week 4): 4.72 (3.838)
Change from Baseline in Average Volume Voided per Micturition, LS Mean (75% UUI Responders, Week 4): 20.7 (4.52)
Change from baseline in average daily number of urgency episodes, LS Mean (75% UUI Responders, Week 4): −2.7 (0.19)
Average Volume Voided per Micturition, Mean (SD) (75% UUI Responders, Week 8): 184.2 (87.70)
Average daily number of urgency episodes, Mean (SD) (75% UUI Responders, Week 8): 3.95 (3.742)
Change from Baseline in Average Volume Voided per Micturition, LS Mean (75% UUI Responders, Week 8): 27.2 (4.67)
Change from baseline in average daily number of urgency episodes, LS Mean (75% UUI Responders, Week 8): −3.5 (0.21)
Average Volume Voided per Micturition, Mean (SD) (75% UUI Responders, Week 12): 185.0 (87.89)
Average daily number of urgency episodes, Mean (SD) (75% UUI Responders, Week 12): 3.31 (3.433)
Change from Baseline in Average Volume Voided per Micturition, LS Mean (75% UUI Responders, Week 12): 26.9 (4.87)
Change from baseline in average daily number of urgency episodes, LS Mean (75% UUI Responders, Week 12): −4.2 (0.23)
Daily Urgency Episodes: Vibegron - Placebo LS Means Difference (Age ≥65 years, Week 12): −1.0
Daily Urgency Episodes: Reduction from Baseline at Week 12, LS Mean (Age ≥65 years): −2.7
Daily Urgency Episodes: Vibegron - Placebo LS Means Difference (Age ≥75 years, Week 12): −1.7
Daily Urgency Episodes: Reduction from Baseline at Week 12, LS Mean (Age ≥75 years): −2.6
Daily Urgency Episodes: Vibegron - Placebo LS Means Difference (All patients, Week 12): −0.7
Daily Urgency Episodes: Reduction from Baseline at Week 12, LS Mean (All patients): −2.7
Patients with 100% Reduction in UUI from Baseline to Week 12, Unadjusted n (%) (Baseline Number of UUI <3): 79 (35.4) n (%)
Patients with at Least 75% Reduction in UUI from Baseline to Week 12, Unadjusted n (%) (Baseline Number of UUI <3): 112 (50.2) n (%)
Patients with 100% Reduction in UUI from Baseline to Week 12, Adjusted n (%) (Baseline Number of UUI <3): 68 (30.4) n (%)
Patients with at Least 75% Reduction in UUI from Baseline to Week 12, Adjusted n (%) (Baseline Number of UUI <3): 101 (45.5) n (%)
75% UUI responders, Active-Placebo CMH Difference (Baseline Number of UUI <3): 7.1
100% UUI responders, Active-Placebo CMH Difference (Baseline Number of UUI <3): 2.8
Patients with 100% Reduction in UUI from Baseline to Week 12, Unadjusted n (%) (Baseline Number of UUI ≥3): 37 (20.6) n (%)
Patients with at Least 75% Reduction in UUI from Baseline to Week 12, Unadjusted n (%) (Baseline Number of UUI ≥3): 99 (55.0) n (%)
Patients with 100% Reduction in UUI from Baseline to Week 12, Adjusted n (%) (Baseline Number of UUI ≥3): 34 (19.1) n (%)
Patients with at Least 75% Reduction in UUI from Baseline to Week 12, Adjusted n (%) (Baseline Number of UUI ≥3): 98 (54.4) n (%)
75% UUI responders, Active-Placebo CMH Difference (Baseline Number of UUI ≥3): 29.4
100% UUI responders, Active-Placebo CMH Difference (Baseline Number of UUI ≥3): 12.3
Urgency, Change from Baseline LS Mean (Dry population, Age <65): −2.9 (64)
Urgency, LS Mean Difference active - Placebo (Dry population, Age <65): −1.4
Urgency, Change from Baseline LS Mean (Dry population, Age ≥65): −2.2 (45)
Urgency, LS Mean Difference active - Placebo (Dry population, Age ≥65): −0.5
Average daily number of urgency episodes, Mean (SD) (Dry population, Week 2): 6.98 (4.732)
Change from baseline in average daily number of urgency episodes, LS Mean (Dry population, Week 2): −1.5 (0.24)
Urgency episodes, Active - Placebo LS Mean Difference (Dry population, Week 2): −0.8 (0.35)
Average daily number of urgency episodes, Mean (SD) (Dry population, Week 4): 6.80 (4.667)
Change from baseline in average daily number of urgency episodes, LS Mean (Dry population, Week 4): −1.8 (0.26)
Urgency episodes, Active - Placebo LS Mean Difference (Dry population, Week 4): −0.9 (0.37)
Average daily number of urgency episodes, Mean (SD) (Dry population, Week 8): 6.39 (4.627)
Change from baseline in average daily number of urgency episodes, LS Mean (Dry population, Week 8): −2.2 (0.30)
Urgency episodes, Active - Placebo LS Mean Difference (Dry population, Week 8): −1.0 (0.44)
Average daily number of urgency episodes, Mean (SD) (Dry population, Week 12): 6.17 (4.958)
Change from baseline in average daily number of urgency episodes, LS Mean (Dry population, Week 12): −2.6 (0.33)
Urgency episodes, Active - Placebo LS Mean Difference (Dry population, Week 12): −1.0 (0.47)
Patients with at Least 50% Reduction in Urgency Episodes, Adjusted (%) [5]: 18.1%
Patients with at Least 50% Reduction in Urgency Episodes, Adjusted n [5]: 22
Patients with at Least 50% Reduction in Urgency Episodes, Unadjusted (%) [5]: 18.7%
Patients with at Least 50% Reduction in Urgency Episodes, Unadjusted n [5]: 23
Urgency 50% responders, Active - Placebo CMH Difference [5]: 4.7
Patients with at Least 50% Reduction in Urgency Episodes, Adjusted (%) (Dry population, baseline to Week 4): 22.4%
